Assay: xn = mol fraction of the nth substance listed
Details: 101 kPa, Liquid; for speed of sound: Pulse-echo method; for mass density: Vibrating tube method

COC(C)(C)C [2-methoxy-2-methylpropane] + CCCCCCCC
Details	mass density, 288.15 K [kg/m3]	mass density, 293.15 K [kg/m3]	mass density, 298.15 K [kg/m3]	mass density, 303.15 K [kg/m3]	mass density, 308.15 K [kg/m3]	speed of sound, 288.15 K [m/s]	speed of sound, 293.15 K [m/s]	speed of sound, 298.15 K [m/s]	speed of sound, 303.15 K [m/s]	speed of sound, 308.15 K [m/s]
x1 = 0.0681	708.15	704.08	700.01	695.91	691.79	1205.4	1184.6	1163.5	1142.6	1121.8
x1 = 0.1226	709.47	705.36	701.24	697.1	692.93	1198.4	1177.6	1156.3	1135.4	1114.7
x1 = 0.2056	711.65	707.48	703.29	699.07	694.83	1187.6	1166.7	1145.4	1124.3	1103.4
x1 = 0.3046	714.48	710.23	705.96	701.64	697.3	1174.2	1153.1	1131.8	1110.5	1089.4
x1 = 0.4001	717.54	713.19	708.81	704.4	699.96	1161.4	1140.2	1118.7	1097.1	1075.9
x1 = 0.4535	719.37	714.96	710.53	706.06	701.56	1154.3	1132.9	1111.2	1089.6	1068.2
x1 = 0.4947	720.85	716.4	711.92	707.4	702.84	1148.7	1127.2	1105.4	1083.8	1062.3
x1 = 0.5442	722.73	718.21	713.67	709.09	704.48	1142	1120.6	1098.7	1077	1055.3
x1 = 0.5996	724.94	720.36	715.75	711.1	706.42	1134.7	1113	1091	1069.1	1047.5
x1 = 0.6916	728.91	724.2	719.47	714.7	709.89	1122.5	1100.6	1078.4	1056.2	1034.3
x1 = 0.8001	734.16	729.3	724.41	719.47	714.49	1108.1	1085.8	1063.2	1040.8	1018.6
x1 = 0.9007	739.68	734.66	729.6	724.5	719.35	1095.1	1072.6	1049.6	1026.9	1004.2
x1 = 0.9487	742.54	737.44	–	727.1	721.86	1089	1066.2	1043.1	1020.1	997.3
